For one test, the system named is Septoria tritici. Briefly: Activity against the Septoria leaf blotch pathogen in the microtiter test. It counts as cell-based. The note with it: Zymoseptoria tritici, 168 h; 31 ppm active compound; absorption at 405 nm on day 7 after inoculation; relative to active compound-free control (100%). How it is done:
The stock solution was pipetted into a microtiter plate (MTP) and diluted with water to the stated active compound concentration. An aqueous malt-based spore suspension of Septoria tritici was then added. The plates were placed in a water vapor-saturated chamber at temperatures of 18° C. Using an absorption photometer, the MTPs were measured at 405 nm on day 7 after the inoculation. The measured parameters were compared to the growth of the active compound-free control variant (100%) and the fungus- and active compound-free blank value to determine the relative growth in % of the pathogens in the individual active compounds.

The test system of the next test is Botrytis cinerea. The test can be described thus: Activity against the gray mold pathogen in the microtiter test. The note with it: 168 h, 31 ppm active compound, absorption at 405 nm on day 7 after inoculation, relative to active compound-free control. Format: cell-based.

Each structure is given as a SMILES string.

In the case of `Cc1cc(F)ccc1OCC(C(O)C(C)(C)C)n1cncn1` (stereo not drawn) [I.8], the relative pathogen growth at 31 ppm in the test on Septoria tritici is at most 14%; with Botrytis cinerea, at most 13%.
As to `CC(C)(C)C(O)C(CCCCOc1cc(Cl)ccc1F)n1cncn1` (stereo not drawn) [I.12b, 8-(5-chloro-2-fluorophenoxy)-2,2-dimethyl-4-[1,2,4]triazol-1-yloctan-3-ol], the relative pathogen growth at 31 ppm in the test with Septoria tritici is at most 14%; with Botrytis cinerea it was at most 13%.
For `CC(C)(C)C(O)C(COc1ccc(Cl)cc1Br)n1cncn1` (stereo not drawn) [I.32], the relative pathogen growth at 31 ppm in the test on Botrytis cinerea is at most 13%.
For `CC(C)(C)C(O)C(COc1ccc(F)c(F)c1F)n1cncn1` (stereo not drawn) [I.40], the relative pathogen growth at 31 ppm was at most 14% in the test with Septoria tritici and at most 13% in the test on Botrytis cinerea.
Taken in the same sequence, the figures for `CC(C)(C)C(O)C(COc1cccc(C(F)(F)F)c1F)n1cncn1` (stereo not drawn) [I.45] were at most 14% and at most 13%.
